Converted amounts (≈) assume the structure as drawn. Where two headings read alike, the source gives them in different places.
Experiments:
[1] = system: mouse dorsal root ganglion (DRG) cells; assay: Calcium imaging of mammalian sensory neurons; format: cell-based; details: 1 µM peptide, Fluo-4 calcium imaging, neuronal and non-neuronal cells
Description: Calcium imaging of a heterogenous population of mouse dorsal root ganglion (DRG) sensory neurons was performed as previously described. In brief, dorsal root ganglion (DRG) cells isolated from 4–8-week-old male C57BL/6 mice under ethics approval TRI/IMB/093/17 (University of Queensland Animal Ethics Committee, approval date 31/03/2017) were dissociated and then plated in Dulbecco’s modified Eagle’s medium (Gibco, Grand Island, NY, USA) containing 10% fetal bovine serum (FBS; Assaymatrix, Melbourne, Australia) and penicillin/streptomycin (Gibco) on a 96-well poly-D-lysine–coated culture plate (Corning, Lowell, MA, USA), and maintained overnight. Cells were loaded with Fluo-4 AM calcium indicator as per the manufacturer’s instructions (Thermo Fisher Scientific, Grand Island, NY, USA). After loading for 1 h, the dye solution was replaced with assay solution (Hanks’ balanced salt solution and 20 mM HEPES). Fluorescence corresponding to intracellular calcium ([Ca^2+]i) of typically 100–150 DRG cells per experiment was monitored in parallel using a Nikon Ti-E deconvolution inverted microscope, equipped with a Lumencor Spectra LED light source. Images were acquired at a 20× objective at one frame/s (excitation 485 nm; emission 521 nm). For each experiment, baseline fluorescence was monitored for 30 s and then a wash of assay solution was applied.

P. aeruginosa ATCC 27853 = details: taken from Dekan et al.; cited from earlier work
[2] = system: K. pneumoniae ATCC 700603; details: taken from Dekan et al.; cited from earlier work
E. coli ATCC 25922 = details: taken from Dekan et al.; cited from earlier work
F11 cells = assay: FLIPR calcium assay, activation of F11 cells; format: cell-based; details: F11 cells, FLIPR
Description: F11 cells were cultured as previously described. Cells were maintained on Ham’s F12 media supplemented with 10% fetal bovine serum (FBS), 100 µM hypoxanthine, 0.4 µM aminopterin, and 16 µM thymidine (Hybri-MaxTM, Sigma Aldrich, North Ryde, Australia). Then, 384-well imaging plates (Corning) were seeded 48 h prior to imaging resulting in 90–95% confluence at imaging. Cells were incubated for 30 min with the Calcium 4 assay component A according to the manufacturer’s instructions (Molecular Devices, Sunnyvale, CA, USA) in physiological salt solution (PSS; composition in mM: 140 NaCl, 11.5 D-glucose, 5.9 KCl, 1.4 MgCl2, 1.2 NaH2PO4, 5 NaHCO3, 1.8 CaCl2, 10 HEPES) at 37°C. Fluorescence was measured using a fluorescent imaging plate reader (FLIPR^TETRA) equipped with a CCD camera (Excitation: 470–490 nm, Emission: […]) (Molecular Devices, Sunnyvale, CA, USA). Signals were read every second for 10 s before, and 300 s after the addition of peptides in PSS supplemented with 0.1% bovine serum albumin. All data are the mean ± SEM of assays performed in triplicate. Maximum–minimum fluorescence in the 300 s period after peptide addition was recorded as the response. Concentration–response data were fitted with a four-parameter Hill equation (variable slope) using GraphPad Prism 8 to obtain effective concentration (EC50) values.

Haemonchus contortus = assay: microbe, parasite or virus in culture; format: cell-based
Description: Sheep were infected with H. contortus Kirby isolate (field isolate from the University of New England Kirby Research Farm in 1986; susceptible to all commercial anthelmintics) and housed at the Commonwealth Scientific and Industrial Research Organisation (CSIRO) FD McMaster Laboratory, Armidale, NSW. All animal procedures were approved by the FD McMaster Animal Ethics Committee, CSIRO (Approval Number AEC 17/12, approval date 15.6.2017). Eggs were prepared from overnight fecal collection as described. In brief, feces were filtered through mesh filters, settled, and supernatant removed by vacuum. Eggs were recovered by density centrifugation using 10 and 25% (w/v) sucrose solutions, centrifuged at 650× g for 7 min. Eggs were recovered from the interface of the two sucrose layers, rinsed with distilled water, sterilized with bleach, rinsed again, and diluted to 4500 eggs/mL. Tylosin tartrate (800 μg/mL) and amphotericin B (25.0 μg/mL) were added, and eggs were used immediately for larval development assays.
Assays were conducted using 96-well microtitre plates, with each well containing 50 μL of 2% agar, 20 μL of egg solution and 20 μL of peptide solution in water. The commercial anthelmintic levamisole (Sigma Aldrich) was used as a positive control (final 1% v/v). Negative controls contained equivalent volumes of water or DMSO (final 1% v/v). Plates were incubated at 26 °C for six days. After 24 h, each well was fed with 10 μL of a nutrient solution containing Escherichia coli XL1-Blue1 (grown overnight at 37 °C) and growth medium. The growth medium consisted of yeast extract (1% w/v), Earle’s salt solution (10% v/v), saline solution (0.9% NaCl, w/v), and sodium bicarbonate (1 mM) in Luria-Bertani medium (LB). Larvae were killed and stained with Lugol’s iodine solution after six days. Larvae that had developed to the infective L3 stage were counted, and the numbers in treated assay wells were expressed as a percentage of the number of infective L3 stage larvae in multiple control wells. Concentrations that caused 50% inhibition (IC50 values) were calculated from three experiments of duplicate assays.

S. aureus NRS 1 = details: taken from Dekan et al.; cited from earlier work
A. baumannii ATCC 19606 = details: taken from Dekan et al.; cited from earlier work
human red blood cells = details: cited from earlier work
Description: Table 2 Summary of bioassay data for synthetic Mp1a and analogues, including effective concentration (EC50) for activation of F11 cells, concentrations that caused 50% inhibition (IC50) for inhibition of larval development of H. contortus; median lethal dose (LD50) for lethal insecticidal effects on D. melanogaster; concentrations required to induce 50% cell death (CC50) for effects on viability o | column: Hemolysis (HC50 µM) ^b

Q: With CC[C@H](C)[C@H](N)C(=O)N[C@@H](CC(=O)O)C(=O)N[C@@H](Cc1c[nH]c2ccccc12)C(=O)N[C@@H](CCCCN)C(=O)N[C@@H](CCCCN)C(=O)N[C@H](C(=O)N[C@@H](CC(=O)O)C(=O)N[C@@H](Cc1c[nH]c2ccccc12)C(=O)N[C@@H](CCCCN)C(=O)N[C@@H](CCCCN)C(=O)N[C@H](C(=O)N[C@@H](CO)C(=O)N[C@@H](CCCCN)C(=O)N[C@@H](CCCCN)C(=O)N[C@H](C(=O)N[C@H]1CSSC[C@@H](C(=O)N[C@@H](CCCCN)C(=O)N[C@@H](CCCCN)C(=O)N[C@H](C(=O)N[C@@H](CC(C)C)C(=O)N[C@@H](CCCCN)C(=O)N[C@@H](CCC(N)=O)C(N)=O)C(C)C)NC(=O)[C@H](C(C)C)NC(=O)[C@H]([C@@H](C)O)NC(=O)[C@H](CCCCN)NC(=O)[C@H](C(C)C)NC(=O)[C@H](CC(C)C)NC(=O)[C@H](C(C)C)NC(=O)[C@@H](NC(=O)[C@@H](NC(=O)CNC(=O)[C@H](CCCCN)NC(=O)[C@H](CO)NC(=O)[C@@H](NC(=O)[C@H](CC(C)C)NC(=O)CNC(=O)[C@@H](NC(=O)[C@@H](N)CC(C)C)[C@@H](C)CC)C(C)C)[C@@H](C)O)CSSC[C@@H](C(=O)N[C@@H](CCCCN)C(=O)N[C@@H](Cc2ccccc2)C(=O)N[C@@H](CC(C)C)C(N)=O)NC(=O)[C@H](C)NC(=O)[C@H](CCCCN)NC(=O)[C@H](CC(C)C)NC(=O)[C@H](CCSC)NC(=O)[C@H](C(C)C)NC(=O)[C@H](CCCCN)NC1=O)[C@@H](C)O)C(C)C)C(C)C [Analogue 1a, ∆-myrtoxin-Mp1a] as the molecule, how does the “Effect on [Ca2+]i of DRG cells” value [1] read?
A: rapid increase in [Ca^2+]i in all cells

Q: And the MIC (P. aeruginosa ATCC 27853)?
A: 0.4 to 0.8 µM

Q: And the MIC [2]?
A: 0.4 to 0.8 µM

Q: What about the MIC (E. coli ATCC 25922) of the same molecule?
A: 0.1 to 0.2 µM

Q: What about the “Concentration at which cytolysis (rapid increase in fluorescence followed by decrease to or below baseline) was observed” value (F11 cells) of the same molecule?
A: ≥ 1 µM

Q: What about the EC50 (F11 cells; Calcium 4 dye, max-min fluorescence in 300 s after peptide addition, PSS with 0.1% BSA, mean ± SEM, triplicate, read-out: Neuronal Cell Activation (EC50)) of the same molecule?
A: 850 ± 30 nM

Q: And the IC50 (Haemonchus contortus; H. contortus Kirby isolate, egg to infective L3, 6 days, 26 °C, three experiments of duplicate assays, ± SEM, for 1a the component at higher concentrations (about 90% of population), read-out: Anthelmintic Activity (IC50), inhibition of larval development)?
A: 6800 ± 500 nM

Q: And the IC50 (Haemonchus contortus; H. contortus larval development, component of the response at < 2 µM, read-out: IC50 for the response observed at lower concentrations (biphasic curve))?
A: 190 nM

Q: And the “Larval development as % of that observed in control assays” value (Haemonchus contortus; at low micromolar concentrations (< 2 µM))?
A: 90%

Q: And the “Fold more potent than spider-venom peptide Hi1a” value (Haemonchus contortus; larval development, same assay)?
A: about threefold

Q: And the MIC (S. aureus NRS 1)?
A: 3.2 µM (≈ 17.9 µg/mL)

Q: And the MIC (A. baumannii ATCC 19606)?
A: 0.025 µM (≈ 0.14 µg/mL)

Q: And the “Hemolysis (HC50)” value (human red blood cells)?
A: 2.2 µM
